Assay results as given in ChEMBL document CHEMBL5291721, “A preclinical secondary pharmacology resource illuminates target-adverse drug reaction associations of marketed drugs” (Nat Commun, 2023).

Assays:
[1] = biological target: T1, Alpha-1A adrenergic receptor (Homo sapiens, UniProt P35348); assay type: functional, cell-based
T1 sequence (P35348 whole entry): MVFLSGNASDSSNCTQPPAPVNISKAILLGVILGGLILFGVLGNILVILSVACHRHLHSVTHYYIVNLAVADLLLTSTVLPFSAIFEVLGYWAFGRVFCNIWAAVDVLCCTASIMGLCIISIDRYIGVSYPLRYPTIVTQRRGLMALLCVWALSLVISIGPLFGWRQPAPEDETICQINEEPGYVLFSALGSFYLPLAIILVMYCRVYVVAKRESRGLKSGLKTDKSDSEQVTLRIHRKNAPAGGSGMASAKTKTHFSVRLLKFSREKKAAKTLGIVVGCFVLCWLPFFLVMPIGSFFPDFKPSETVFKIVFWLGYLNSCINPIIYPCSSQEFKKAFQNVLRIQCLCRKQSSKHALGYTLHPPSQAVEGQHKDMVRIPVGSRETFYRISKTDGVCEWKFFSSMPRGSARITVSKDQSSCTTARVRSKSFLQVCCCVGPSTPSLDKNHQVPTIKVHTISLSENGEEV

[2] = biological target: Sodium-dependent dopamine transporter (Homo sapiens, UniProt Q01959)
Chain of Sodium-dependent dopamine transporter (Q01959 whole entry): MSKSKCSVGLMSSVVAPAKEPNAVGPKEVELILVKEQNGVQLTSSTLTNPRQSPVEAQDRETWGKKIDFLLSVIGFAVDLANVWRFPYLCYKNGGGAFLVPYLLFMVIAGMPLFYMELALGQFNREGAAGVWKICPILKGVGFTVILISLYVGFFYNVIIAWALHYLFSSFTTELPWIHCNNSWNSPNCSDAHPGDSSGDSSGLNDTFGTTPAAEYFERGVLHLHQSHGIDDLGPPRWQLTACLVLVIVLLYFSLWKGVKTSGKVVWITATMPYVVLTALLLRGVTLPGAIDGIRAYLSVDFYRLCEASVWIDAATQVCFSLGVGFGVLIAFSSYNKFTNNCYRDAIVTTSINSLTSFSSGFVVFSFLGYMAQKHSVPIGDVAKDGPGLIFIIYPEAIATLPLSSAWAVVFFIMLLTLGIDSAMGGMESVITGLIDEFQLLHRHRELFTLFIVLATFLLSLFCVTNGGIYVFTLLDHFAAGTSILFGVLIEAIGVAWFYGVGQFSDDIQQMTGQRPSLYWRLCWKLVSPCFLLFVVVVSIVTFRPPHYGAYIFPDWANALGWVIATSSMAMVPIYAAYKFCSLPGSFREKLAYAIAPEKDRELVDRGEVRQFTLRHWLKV

Adenosine receptor A3 = biological target: T2, Adenosine receptor A3 (Homo sapiens, UniProt P0DMS8)
T2 sequence (P0DMS8 whole entry): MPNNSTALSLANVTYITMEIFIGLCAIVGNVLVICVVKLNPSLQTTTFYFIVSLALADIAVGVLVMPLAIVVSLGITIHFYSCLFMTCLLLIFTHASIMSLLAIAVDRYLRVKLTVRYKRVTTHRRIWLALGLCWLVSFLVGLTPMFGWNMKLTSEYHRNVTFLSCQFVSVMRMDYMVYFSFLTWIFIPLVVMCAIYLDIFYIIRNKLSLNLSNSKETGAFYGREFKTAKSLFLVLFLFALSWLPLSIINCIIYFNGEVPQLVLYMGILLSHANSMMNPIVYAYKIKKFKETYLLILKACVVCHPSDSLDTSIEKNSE

Estrogen receptor = biological target: T3, Estrogen receptor (Homo sapiens, UniProt P03372)
T3 sequence (P03372 whole entry): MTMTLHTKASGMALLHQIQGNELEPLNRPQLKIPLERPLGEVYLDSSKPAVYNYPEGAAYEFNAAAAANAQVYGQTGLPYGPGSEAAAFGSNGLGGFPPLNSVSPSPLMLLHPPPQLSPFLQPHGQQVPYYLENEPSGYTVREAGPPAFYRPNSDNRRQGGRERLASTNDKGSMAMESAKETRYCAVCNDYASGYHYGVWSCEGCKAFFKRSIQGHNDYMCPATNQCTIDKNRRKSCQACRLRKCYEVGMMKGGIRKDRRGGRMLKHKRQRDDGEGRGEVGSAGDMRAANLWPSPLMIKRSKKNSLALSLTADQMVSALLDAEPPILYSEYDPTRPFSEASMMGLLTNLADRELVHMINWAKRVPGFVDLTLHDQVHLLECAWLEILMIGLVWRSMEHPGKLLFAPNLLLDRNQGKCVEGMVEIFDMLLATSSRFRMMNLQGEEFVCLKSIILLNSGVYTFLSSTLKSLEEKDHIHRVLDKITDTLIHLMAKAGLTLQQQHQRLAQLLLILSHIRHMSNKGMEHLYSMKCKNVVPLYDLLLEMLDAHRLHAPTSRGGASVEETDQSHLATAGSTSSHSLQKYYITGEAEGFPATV

Thromboxane A2 receptor = biological target: T4, Thromboxane A2 receptor (Homo sapiens, UniProt P21731); assay type: functional, cell-based
T4 sequence (P21731 whole entry): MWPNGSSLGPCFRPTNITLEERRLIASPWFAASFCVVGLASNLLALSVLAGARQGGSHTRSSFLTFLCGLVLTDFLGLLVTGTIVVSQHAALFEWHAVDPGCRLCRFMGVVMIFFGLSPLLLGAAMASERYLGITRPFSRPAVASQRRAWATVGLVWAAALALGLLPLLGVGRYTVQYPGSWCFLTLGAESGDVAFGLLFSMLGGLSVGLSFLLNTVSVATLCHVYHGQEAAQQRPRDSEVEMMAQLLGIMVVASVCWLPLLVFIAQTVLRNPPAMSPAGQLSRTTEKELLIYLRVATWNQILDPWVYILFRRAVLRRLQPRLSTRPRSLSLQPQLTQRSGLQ

Mu-type opioid receptor = Mu-type opioid receptor (Homo sapiens, UniProt P35372)
Chain of Mu-type opioid receptor (P35372 whole entry): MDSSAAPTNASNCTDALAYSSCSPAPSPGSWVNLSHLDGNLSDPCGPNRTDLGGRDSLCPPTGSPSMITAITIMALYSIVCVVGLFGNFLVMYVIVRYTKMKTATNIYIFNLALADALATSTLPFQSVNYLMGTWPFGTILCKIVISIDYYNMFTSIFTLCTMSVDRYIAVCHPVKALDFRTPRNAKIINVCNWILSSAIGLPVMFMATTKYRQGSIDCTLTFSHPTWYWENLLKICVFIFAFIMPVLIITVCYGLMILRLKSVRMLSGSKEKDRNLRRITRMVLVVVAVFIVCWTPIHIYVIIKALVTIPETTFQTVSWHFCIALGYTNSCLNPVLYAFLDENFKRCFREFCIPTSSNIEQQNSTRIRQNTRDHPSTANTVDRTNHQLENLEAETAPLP

[3] = biological target: T5, Muscarinic acetylcholine receptor M2 (Homo sapiens, UniProt P08172)
T5 sequence (P08172 whole entry): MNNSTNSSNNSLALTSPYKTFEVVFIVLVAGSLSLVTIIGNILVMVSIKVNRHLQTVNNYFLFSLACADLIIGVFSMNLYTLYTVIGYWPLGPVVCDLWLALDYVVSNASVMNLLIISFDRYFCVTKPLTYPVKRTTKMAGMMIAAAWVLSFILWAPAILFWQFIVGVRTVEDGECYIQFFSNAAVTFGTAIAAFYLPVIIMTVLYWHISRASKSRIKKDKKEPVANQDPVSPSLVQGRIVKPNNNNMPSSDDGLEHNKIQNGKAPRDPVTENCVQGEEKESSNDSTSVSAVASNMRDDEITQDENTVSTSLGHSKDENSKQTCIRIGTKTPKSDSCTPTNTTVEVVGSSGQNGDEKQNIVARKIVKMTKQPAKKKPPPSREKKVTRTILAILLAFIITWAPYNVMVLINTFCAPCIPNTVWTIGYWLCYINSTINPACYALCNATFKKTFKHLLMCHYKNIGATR

Acetylcholinesterase = Acetylcholinesterase (Homo sapiens, UniProt P22303); assay type: functional
Chain of Acetylcholinesterase (P22303 whole entry): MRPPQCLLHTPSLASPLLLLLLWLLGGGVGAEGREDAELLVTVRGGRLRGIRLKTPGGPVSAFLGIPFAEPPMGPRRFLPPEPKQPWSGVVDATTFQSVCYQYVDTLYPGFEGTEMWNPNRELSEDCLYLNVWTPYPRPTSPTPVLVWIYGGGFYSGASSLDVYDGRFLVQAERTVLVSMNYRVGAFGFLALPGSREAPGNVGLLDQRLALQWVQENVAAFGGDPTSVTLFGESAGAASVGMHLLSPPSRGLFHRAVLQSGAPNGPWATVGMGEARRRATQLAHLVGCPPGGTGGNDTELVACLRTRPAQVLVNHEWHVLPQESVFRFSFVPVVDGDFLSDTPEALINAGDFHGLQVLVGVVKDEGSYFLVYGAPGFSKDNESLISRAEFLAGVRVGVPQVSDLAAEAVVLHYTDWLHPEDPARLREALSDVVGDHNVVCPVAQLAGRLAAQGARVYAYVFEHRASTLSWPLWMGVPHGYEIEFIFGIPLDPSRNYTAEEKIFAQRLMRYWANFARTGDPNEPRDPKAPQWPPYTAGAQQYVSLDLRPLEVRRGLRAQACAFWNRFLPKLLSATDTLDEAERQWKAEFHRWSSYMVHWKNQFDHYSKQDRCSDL

[4] = biological target: T6, Prostaglandin G/H synthase 1 (Homo sapiens, UniProt P23219); assay type: functional
T6 sequence (P23219 whole entry): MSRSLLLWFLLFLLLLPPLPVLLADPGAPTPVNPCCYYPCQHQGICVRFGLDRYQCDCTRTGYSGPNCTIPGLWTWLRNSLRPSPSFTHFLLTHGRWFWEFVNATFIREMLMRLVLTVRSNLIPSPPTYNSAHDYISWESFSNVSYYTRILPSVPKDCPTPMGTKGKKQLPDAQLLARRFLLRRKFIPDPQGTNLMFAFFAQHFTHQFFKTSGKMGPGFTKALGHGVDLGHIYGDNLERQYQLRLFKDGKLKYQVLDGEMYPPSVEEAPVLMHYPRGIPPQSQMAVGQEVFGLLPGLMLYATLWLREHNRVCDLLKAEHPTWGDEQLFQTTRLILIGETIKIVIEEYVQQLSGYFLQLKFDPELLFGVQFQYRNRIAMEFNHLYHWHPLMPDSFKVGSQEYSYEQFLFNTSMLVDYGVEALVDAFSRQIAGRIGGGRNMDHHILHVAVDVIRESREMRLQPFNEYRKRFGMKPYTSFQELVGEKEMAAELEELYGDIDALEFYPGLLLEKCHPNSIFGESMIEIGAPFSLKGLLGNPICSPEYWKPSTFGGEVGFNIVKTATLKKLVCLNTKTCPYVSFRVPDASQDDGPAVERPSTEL

[5] = biological target: T6, Prostaglandin G/H synthase 1; assay type: functional; remark: listed apart in the source
Further: assay procedure not described here.

Structure (SMILES)	AC50 [1] [µM]	AC50 [2] [µM]	AC50 (Adenosine receptor A3) [µM]	AC50 (Estrogen receptor) [µM]	AC50 (Thromboxane A2 receptor) [µM]	AC50 (Mu-type opioid receptor) [µM]	AC50 [3] [µM]	AC50 (Acetylcholinesterase) [µM]	AC50 [4] [µM]	AC50 [5] [µM]
O=C(Oc1ccc2c(c1)CCCN2C(=O)C(Cl)Cl)c1ccco1 [QUINFAMIDE]	> 30	> 30	25.6	20.3	> 30	> 30	> 30	> 30	> 30	> 30
O=c1[nH]c(=O)n([C@H]2C[C@H](O)[C@@H](CO)O2)cc1F [FLOXURIDINE]	> 30	> 30	> 30	> 30	> 30	> 30	> 30	> 30	> 30	> 30
CC[C@H]1CN2CC[C@H]1C[C@H]2[C@H](O)c1ccnc2ccc(OC)cc12 [HYDROQUININE]	> 30	29.1	> 30	> 30	> 30	8.13	23.4	> 30	> 30	> 30
CCCCS(=O)(=O)N[C@@H](Cc1ccc(OCCCCC2CCNCC2)cc1)C(=O)O [TIROFIBAN]	> 30	> 30		> 30	> 10	> 30	20.4	> 30	> 30	> 30
Cc1oc(=O)oc1CN1CCN(c2cc3c(cc2F)c(=O)c(C(=O)O)c2n3C(C)S2)CC1 (stereo not given) [PRULIFLOXACIN]		> 30		> 30	> 30	> 30	> 30	> 30	> 30	> 30
COc1cc([C@@H]2c3cc4c(cc3[C@H](O)[C@H]3COC(=O)[C@H]23)OCO4)cc(OC)c1OC [PODOFILOX]	> 30	> 30	> 30		> 30	> 30	> 30	> 30	> 30	> 30
C[S+](CC[C@H](N)C(=O)[O-])C[C@H]1O[C@@H](n2cnc3c(N)ncnc32)[C@H](O)[C@@H]1O (stereo not given in full) [ADEMETIONINE]	> 30	> 30	0.174		> 30	> 30	> 30	> 30	> 30	> 30
O=[N+]([O-])O[C@@H]1CO[C@H]2[C@@H]1OC[C@@H]2O [ISOSORBIDE MONONITRATE]	> 30	> 30		> 30	> 30	> 30	> 30	> 30	> 30	> 30
CCN1CCCC1CNC(=O)c1cc(S(N)(=O)=O)ccc1OC (stereo not given) [SULPIRIDE]	> 30	> 30	> 30		> 30	> 30	> 30	> 30	11.7	15.8
C=CCCCCCCCCC(=O)O [UNDECYLENIC ACID]		> 30		> 30	> 30	> 30	> 30	> 30	> 30	> 30
COc1ccc2c(c1)N(C[C@H](C)CN(C)C)c1ccccc1S2 [LEVOMEPROMAZINE]			> 30	> 30	26	13.5	1.68	> 30	11.3	> 30
CCC(CC)(CC(=O)Nc1cccc(/C=C/c2nc(C3CCC3)cs2)c1)C(=O)O	> 10	> 30		> 30	> 3	> 30	> 30	> 30	26.2	> 30
O=c1[nH]c(=O)n([C@H]2C[C@H](O)[C@@H](CO)O2)cc1I [IDOXURIDINE]	> 30	> 30	> 30		> 30	> 30	> 30	> 30	> 30	> 30
O=C(O)c1ccccc1C(=O)Nc1ccc(S(=O)(=O)Nc2nccs2)cc1 [PHTHALYLSULFATHIAZOLE]	> 30	> 30	> 30		> 30	> 30	> 30	> 30	8.95	20
NC1=NCC2c3ccccc3Cc3ccccc3N12 (stereo not given) [EPINASTINE]	> 30	> 30	> 30		> 30	17.4	> 30	> 30	> 30	> 30
COc1cc2c3cc1Oc1cc(ccc1O)C[C@@H]1c4c(cc(OC)c(O)c4Oc4ccc(cc4)C[C@@H]3N(C)CC2)CC[N+]1(C)C [TUBOCURARINE]	> 30	> 30	> 30		> 30	24.1	> 30	> 30	> 30	> 30
COC1=C(OC)C(=O)C(C/C=C(\C)CC/C=C(\C)CC/C=C(\C)CC/C=C(\C)CC/C=C(\C)CC/C=C(\C)CC/C=C(\C)CC/C=C(\C)CC/C=C(\C)CCC=C(C)C)=C(C)C1=O [UBIDECARENONE]	> 30	> 30		> 30	> 30	> 30	> 30	> 30	> 30	> 30
CC(=O)Oc1ccc2c(c1)CC[C@@H]1[C@@H]2CC[C@]2(C)[C@@H](O)CC[C@@H]12 [ESTRADIOL ACETATE]	> 30	8.09	10.5		13.1	9.04	> 30	> 30	> 30	> 3
COc1cc2nc(N3CCN(C(=O)c4ccco4)CC3)nc(N)c2cc1OC [PRAZOSIN]		30		> 30	> 30	17.5	13.3	23.7	> 30	> 30
